# Patent US12435379B2 (The University of Chicago, priority 2016, dated 2025)
# Legend:
# [1] = tested on: TMD8 cells transfected with WT BTK; details: 100 nM ibr 3 days, 10 μM BrdU 2 hrs
# Procedure: (§1) FIGS. 3A-C. […] (A) Growth of TMD8 cells transfected with BTK T316A, C481S, and WT BTK constructs. The transfected cells were cultured with either 100 nM ibr or DMSO. The live cell numbers were counted daily to 7 days. […] (B) Cell proliferation evaluated with the BrdU incorporation assay. Cells transfected with WT BTK and T316A were treated with 100 nM ibr for 3 days and were labeled with 10 μM BrdU for 2 hrs.
# (§2) BTK WT or mutant-transfected TMD8 cells were treated with ibr for 72 hrs at indicated doses. Cells were then exposed to 10 μM BrdU for 2 hrs followed by cell cycle analysis according to the manufacturer's instructions using BrdU Flow Kit (BD Pharmingen, San Diego, CA, USA). Flow cytometric analysis was performed using 4-laser BD LSR II using FACSDiva and FlowJo software.
# (§3) The functional impact of T316A mutation was assessed at the cellular levels. BTK wild type (WT) and T316A as well as C481S expression vectors were constructed and transfected into an ibr-sensitive lymphoma cell line (TMD8) and cell growth was followed.
# [2] = tested on: TMD8 cells transfected with BTK T316A; details: 100 nM ibr 3 days, 10 μM BrdU 2 hrs
# Procedure: as §1, §2, §3
compound,measurement,setting,value
"C=CC(=O)N1CCC[C@@H](n2nc(-c3ccc(Oc4ccccc4)cc3)c3c(N)ncnc32)C1 [Ibrutinib, ibrutinib]",BrdU incorporation (cellular proliferation) under ibr,[1],9.71%
same,BrdU incorporation (cellular proliferation) under ibr,[2],31.8%
